Where two headings read alike, the source gives them in different places.
Columns and labels:
[1] = test system: SARS-CoV-2 variant B.1.351; assay: microbe, parasite or virus in culture; type: cell-based
[2] = test system: SARS-CoV-2 variant B.1.617.2; assay: microbe, parasite or virus in culture; type: cell-based
[3] = test system: SARS-CoV-2 B.1.617.2 variants; details: in vivo
SARS-CoV-2 variants = assay: microbe, parasite or virus in culture; type: cell-based
[4] = Severe acute respiratory syndrome coronavirus 2, Vero C1008, 48 h

How did the IC50 [1, 4] turn out when `CC(C)C(=O)OC[C@H]1O[C@@](C#N)(c2ccc3c(N)ncnn23)[C@H](O)[C@@H]1O` [ATV006, ((2R,3S,4R,5R)-5-(4-aminopyrrolo[2,1-f][1,2,4]triazin-7-yl)-5-cyano-3,4-dihydroxytetrahydrofuran-2-yl)methyl isobutyrate] was run?
Its IC50 is 1130 nM.

What about the IC50 [2, 4] of the same molecule?
Its IC50 is 348 nM.

What about the “amount of viral genome (N gene) in lung tissue” value [3] of the same molecule?
Its value is “significantly lower than that in the control group”.

What about the “amount of viral subgenome (subgenomic N) in lung tissue” value [3] of the same molecule?
The value was “significantly lower than that in the control group”.

`CCCC(=O)OC[C@H]1O[C@@](C#N)(c2ccc3c(N)ncnn23)[C@H](O)[C@@H]1O` [ATV009, ((2R,3S,4R,5R)-5-(4-aminopyrrolo[2,1-f][1,2,4]triazin-7-yl)-5-cyano-3,4-dihydroxytetrahydrofuran-2-yl)methyl butyrate] was tested. Which IC50 [1, 4] did it give?
The IC50 was 1380 nM.

What about the IC50 [2, 4] of the same molecule?
The IC50 was 492 nM.

Which IC50 [1, 4] does the source give for `CCCCCCCCC(=O)OC[C@H]1O[C@@](C#N)(c2ccc3c(N)ncnn23)[C@H](O)[C@@H]1O` [ATV010, ((2R,3S,4R,5R)-5-(4-aminopyrrolo[2,1-f][1,2,4]triazin-7-yl)-5-cyano-3,4-dihydroxytetrahydrofuran-2-yl)methyl nonanoate] here?
Its IC50 is 1000 nM.

And the IC50 [2, 4]?
Its IC50 is 455 nM.

How did the IC50 [1, 4] turn out when `CCC(CC)C(=O)OC[C@H]1O[C@@](C#N)(c2ccc3c(N)ncnn23)[C@H](O)[C@@H]1O` [ATV011, ((2R,3S,4R,5R)-5-(4-aminopyrrolo[2,1-f][1,2,4]triazin-7-yl)-5-cyano-3,4-dihydroxytetrahydrofuran-2-yl)methyl 2-ethylbutanoate] was run?
The IC50 was 2300 nM.

What about the IC50 [2, 4] of the same molecule?
The IC50 was 408 nM.

With `N#C[C@@]1(c2ccc3c(N)ncnn23)O[C@H](COC(=O)c2ccccc2)[C@@H](O)[C@H]1O` [ATV013, ((2R,3S,4R,5R)-5-(4-aminopyrrolo[2,1-f][1,2,4]triazin-7-yl)-5-cyano-3,4-dihydroxytetrahydrofuran-2-yl)methyl benzoate] as the molecule, how does the IC50 [1, 4] read?
Its IC50 is 2430 nM.

And the IC50 [2, 4]?
Its IC50 is 965 nM.

Which IC50 [1] does the source give for `N#C[C@@]1(c2ccc3c(N)ncnn23)O[C@H](COC(=O)C2CCCCC2)[C@@H](O)[C@H]1O` [ATV014, ((2R,3S,4R,5R)-5-(4-aminopyrrolo[2,1-f][1,2,4]triazin-7-yl)-5-cyano-3,4-dihydroxytetrahydrofuran-2-yl)methyl cyclohexanecarboxylate] here?
Its IC50 is 248 nM.

And the IC50 [2]?
Its IC50 is 210 nM.

What about the IC50 (SARS-CoV-2 variants; Severe acute respiratory syndrome coronavirus 2) of the same molecule?
Its IC50 is < 340 nM.

And the “anti-SARS-CoV-2 activity relative to GS-441524” value (SARS-CoV-2 variants; summary statement, in words)?
The value was “twice that of GS-441524”.

`CC(C)CC(=O)OC[C@H]1O[C@@](C#N)(c2ccc3c(N)ncnn23)[C@H](O)[C@@H]1O` [ATV017, ((2R,3S,4R,5R)-5-(4-aminopyrrolo[2,1-f][1,2,4]triazin-7-yl)-5-cyano-3,4-dihydroxytetrahydrofuran-2-yl)methyl 3-methylbutanoate] was tested. Which IC50 [1, 4] did it give?
The IC50 was 2850 nM.

What about the IC50 [2, 4] of the same molecule?
The IC50 was 428 nM.

How did the IC50 [1, 4] turn out when `CC(C)(C)C(=O)OC[C@H]1O[C@@](C#N)(c2ccc3c(N)ncnn23)[C@H](O)[C@@H]1O` [ATV018, ((2R,3S,4R,5R)-5-(4-aminopyrrolo[2,1-f][1,2,4]triazin-7-yl)-5-cyano-3,4-dihydroxytetrahydrofuran-2-yl)methyl pivalate] was run?
Its IC50 is 785 nM.

And the IC50 [2, 4]?
Its IC50 is 229 nM.

Which IC50 [1] does the source give for `N#C[C@@]1(c2ccc3c(N)ncnn23)O[C@H](CO)[C@@H](O)[C@H]1O` [GS-441524, reference compound] here?
The IC50 was 1780 nM.

What about the IC50 [2] of the same molecule?
Its IC50 is 1640 nM.
